The MTD is the largest dose that counted as tolerated. Usually IC50 stands for the concentration that gives 50% inhibition.

Consider twelve compounds from ChEMBL document CHEMBL5154636, “Discovery of STAT3 and Histone Deacetylase (HDAC) Dual-Pathway Inhibitors for the Treatment of Solid Cancer” (J Med Chem, 2021).

Data set [1] has as its system MCF-10A. In words: Cytotoxicity against human MCF-10 A cells assessed as reduction in cell viability at 32 uM incubated for 48 hrs by MTT assay relative to control. The data set is classed as toxicity, cell-based. Background: Tetrazolium dyes change colour on reduction, which living cells bring about.
The subject of data set [2] is L02. Nature of the data set: Cytotoxicity against human L02 cells assessed as reduction in cell viability at 32 uM incubated for 48 hrs by MTT assay relative to control. The data set is classed as toxicity, cell-based. The following applies: l02, 48 h.
Data set [3] can be described thus: Acute toxicity in po dosed ICR mouse assessed as maximum tolerated dose measured after 7 days. Format: organism-based. The settings on record: in vivo, time 7 day.
In data set [4] the test system is HCT-116. Nature of the data set: Cytotoxicity against human HCT-116 cells assessed as reduction in cell viability incubated for 48 hrs by MTT assay. The following applies: HCT-116, 48 h. The data set is classed as functional, cell-based.
Data set [5] has as its system MDA-MB-231. Nature of the data set: Cytotoxicity against human MDA-MB-231 cells assessed as reduction in cell viability incubated for 48 hrs by MTT assay. The data set is classed as functional, cell-based. The following applies: MDA-MB-231, 48 h.

For `O=C(CCCCCCC(=O)Nc1ccccc1)NO` [VORINOSTAT], the Activity amounted to 24% in data set [1] and 26% in data set [2]. In addition, in data set [3], the MTD at 168 h was over 400 mg/kg.
As for `COc1cc(/C=C/c2ccc(OCCc3cn(CC(=O)NO)nn3)cc2)cc(OC)c1`, the IC50 in data set [4] came to 7.44 µM; in data set [5], 6.52 µM.
As to `COc1cc(/C=C/c2ccc(OCCCCC(=O)NO)cc2)cc(OC)c1`, the 50% inhibitory concentration (IC50) in data set [4] is 3.35 µM; in data set [5], 4.21 µM.
As for `COc1cc(/C=C/c2ccc(OCc3ccccc3C(=O)NO)cc2)cc(OC)c1`, the IC50 in data set [4] was 13.9 µM; in data set [5], 7.18 µM.
The like results for `COc1cc(/C=C/c2ccc(OCc3ccc(C(=O)NO)cc3)cc2)cc(OC)c1` were, in that order, 10.4 µM and 6.88 µM.
Regarding `COc1cc(/C=C/c2ccc(O)cc2)cc(OC)c1` [PTEROSTILBENE], the IC50 in data set [4] was found to be 34.1 µM; in data set [5], 31.2 µM. The Activity entry in data set [1] and in data set [2] was “Non-Toxic” in each case. Moreover, the MTD at 168 h in data set [3] is over 400 mg/kg.
Regarding `COc1cc(/C=C/c2ccc(OCCCC(=O)NO)cc2)cc(OC)c1`, the 50% inhibitory concentration (IC50) in data set [4] stood at 5.2 µM; in data set [5], 3.89 µM.
As to `COc1cc(/C=C/c2ccc(OCCCCCCCC(=O)NO)cc2)cc(OC)c1`, the IC50 in data set [4] was 12.6 µM; in data set [5], 5.05 µM.
The like results for `COc1cc(/C=C/c2ccc(NCc3ccc(/C=C/C(=O)NO)cc3)cc2)cc(OC)c1` were, in that order, 11.2 µM and 5.95 µM.
Take `COc1cc(/C=C/c2ccc(OCc3cccc(C(=O)NO)c3)cc2)cc(OC)c1`: the half-inhibitory concentration (IC50) in data set [4] stood at 13.7 µM; in data set [5], 9.22 µM.
The matching figures for `COc1cc(/C=C/c2ccc(OCCN3CCN(CC(=O)NO)CC3)cc2)cc(OC)c1`: 8.87 µM and 7.42 µM.
The matching figures for `COc1cc(/C=C/c2ccc(OCCCCCC(=O)NO)cc2)cc(OC)c1`: 4.1 µM and 3.56 µM.
